Assay [1] has as its system SPT. The following applies: literature statement; cited from earlier work.
The target in assay [2] is T1, SPT (Homo sapiens, UniProt O15269+O15270).
T1 construct: endogenous in cells
T1 sequence (O15269 1-473): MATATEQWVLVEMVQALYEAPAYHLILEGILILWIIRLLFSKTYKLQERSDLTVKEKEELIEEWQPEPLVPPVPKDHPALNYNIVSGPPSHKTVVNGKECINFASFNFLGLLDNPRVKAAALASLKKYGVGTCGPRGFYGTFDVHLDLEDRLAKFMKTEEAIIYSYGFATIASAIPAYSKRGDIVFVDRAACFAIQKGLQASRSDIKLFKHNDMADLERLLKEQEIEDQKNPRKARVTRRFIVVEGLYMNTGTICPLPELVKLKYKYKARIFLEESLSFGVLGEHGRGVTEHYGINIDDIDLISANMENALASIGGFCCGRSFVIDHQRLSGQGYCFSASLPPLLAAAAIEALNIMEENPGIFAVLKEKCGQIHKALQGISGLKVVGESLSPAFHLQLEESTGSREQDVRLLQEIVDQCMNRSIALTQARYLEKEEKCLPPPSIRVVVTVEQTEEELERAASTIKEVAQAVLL
T1 sequence (O15270 1-562): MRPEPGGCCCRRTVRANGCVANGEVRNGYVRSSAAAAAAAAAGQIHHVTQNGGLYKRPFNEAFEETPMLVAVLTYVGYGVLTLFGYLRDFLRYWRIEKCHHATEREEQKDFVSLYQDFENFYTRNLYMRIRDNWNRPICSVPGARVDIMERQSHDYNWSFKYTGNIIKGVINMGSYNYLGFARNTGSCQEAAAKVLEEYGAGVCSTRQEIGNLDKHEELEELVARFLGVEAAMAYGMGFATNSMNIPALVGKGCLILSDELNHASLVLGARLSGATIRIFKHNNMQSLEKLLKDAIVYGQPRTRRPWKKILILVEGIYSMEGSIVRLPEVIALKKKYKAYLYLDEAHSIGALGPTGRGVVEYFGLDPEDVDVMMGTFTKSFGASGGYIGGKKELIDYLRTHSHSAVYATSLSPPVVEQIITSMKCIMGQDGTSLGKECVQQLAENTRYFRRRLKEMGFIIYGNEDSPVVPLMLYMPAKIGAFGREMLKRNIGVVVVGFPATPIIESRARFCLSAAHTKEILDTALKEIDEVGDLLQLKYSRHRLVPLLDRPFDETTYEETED
T1 sequence (Q969W0 1-71 partner): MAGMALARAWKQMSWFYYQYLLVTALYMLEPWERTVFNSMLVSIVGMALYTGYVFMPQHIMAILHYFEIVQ
The assay is described as follows: Serine palmitoyltransferase activity, Assay C ([3H]serine incorporation into lipids, cell homogenate). Type of assay: biochemical. Particulars: for inhibition of SPT (in words): Assay C, at the doses of Table 2. The procedure:
An alternative assay for evaluating inhibition of SPT, the enzyme present in commonly cultured cells, is performed with CHO cells or a human cell line. Cells are washed three times with ice-cold phosphate-buffered saline (PBS). A total of 0.5 mL of lysis buffer [50 mM Hepes (pH 8.0) containing 5 mM ethylenediaminetetraacetic acid (EDTA) and 5 mM dithiothreitol (DTT)] is added to each dish. The cells are scraped using a rubber policeman, and are then transferred to a test tube on ice. The cell suspension is sonicated three times for 5 s at 1–2 min intervals on ice. Protein concentrations in cell homogenates are measured using a Bradford protein assay kit (Bio-Rad). To measure the SPT activity, 0.1 mL of cell homogenates are added to 0.1 mL of reaction buffer [20 mM Hepes (pH 8.0) containing 5 mM EDTA, 10 mM DTT, 50 μM pyridoxal-5′-phosphate, 0.4 mM palmitoyl CoA, 2 mM L-serine, 10 μCi of [^3H]serine, and test compound or standard inhibitor (myriocin). After incubation at 37° C. for 20 min with shaking, the reaction is terminated with 0.5 mL of 0.5 N NH4OH containing 10 mM L-serine. The lipid products are extracted using the solvent system: 3 mL of chloroform/methanol (1:2), 25 μg of sphingosine (1 mg/mL in ethanol) as a carrier, 2 mL of chloroform, and 3.8 mL of 0.5 N NH4OH. After vigorous mixing, the phases are separated by centrifugation at 2500 rpm for 5 min. The aqueous layer is removed by aspiration, and the lower chloroform layer is washed 3 times with 4.5 mL of water. The chloroform layer is transferred to a scintillation vial, and the solvent is evaporated under N2 gas. The radioactivity is measured with a LS6000TA liquid scintillation counter (Beckman). Nonspecific conversion of [^3H] serine to chloroform-soluble species is determined by performing the assay in the absence of palmitoyl CoA. The count of the background is about one-sixth of the count of 100% activity.
An alternative assay using a non-chlorinated solvent modification of the Blye and Dyer lipid extraction method reported in Smedes (Smedes, F., Analyst 124:1711–18 (1999)) was employed to evaluate exemplary compounds. In this approach, the cells were washed three times with ice-cold phosphate-buffered saline and 0.5 mL of lysis buffer was added to each dish. The cells were scraped using a rubber policeman and transfer to a test tube on ice. The cell suspension was sonicated three times for 5 s at 1–2 min intervals on ice. A 0.1 mL sample of cell homogenates were added to 0.1 mL of reaction buffer in a test tube containing the appropriate concentration of test substance and 10 μCi of [^3H] serine. The reaction mixture was incubated at 37° C. for 20 min with shaking, and the reaction was terminated with 0.5 mL of […] NH4OH stop solution containing 10 mM unlabeled L-serine. Total lipids are extracted by transferring the contents of the test tube into a 15 ml centrifuge tube containing: 4.5 mL of isopropanol/cyclohexane (4:5) containing 25 μg of sphingosine (1 mg/mL in ethanol and diluted into the isopropanol/cyclohexane mixture) as a carrier. The contents were mixed vigorously and 4 mL of 0.5 N NH4OH was added. The phases were separated by centrifugation at 2500 rpm for 5 min. An accurately measured portion of the organic layer (4.0 ml) was added to a scintillation vial with 1 ml of water. Ultima Gold F (5 ml) was added, the vial was vortexed and allowed to settle into separate layers. The amount of [^3H] serine radioactivity incorporated into lipids was quantified in a scintillation counter. Non-specific counts were determined by carrying out the assay with control samples containing no palmitoyl CoA.

The test system of another assay is Rat pancreatic islets. The assay is described as follows: Protection of islets from fatty acid (palmitate) induced apoptosis, propidium iodide flow cytometry. Format: cell-based. The following applies: 3 days; for % Apoptosis: Fatty Acid medium (1 millimolar sodium palmitate), Control medium 2.40, Fatty Acid medium 17.60. The protocol:
Islet protection by an exemplary compound was evaluated in an assay according to Eitel, K, et al (2002), and results obtained in this assay are reported below in Table 4. Rat pancreatic islets were cultured with control medium (RPMI 1640 supplemented with 10% fetal bovine serum, antibiotics and made […]) or in medium supplemented with 1 millimolar sodium palmitate (Fatty Acid Medium) during a period of 3 days. The culture medium was changed after 2 days to an identical composition culture medium with fresh inhibitor in the appropriate wells. Cells were stained with propidium iodide (PI), washed and propidium staining of cells (as a measure of cellular DNA content) was assessed by flow cytometry. The percentage of cells having less than the normal amount of PI staining was considered to be apoptotic cells (Eitel, K, et al. (2002)).
(In general: Flow cytometry measures light scatter and fluorescence of single cells or particles in a stream.)

A further assay concerns beta cell apoptosis. Particulars: diabetic Zucker fatty rat model; cited from earlier work.
Where [3] appears, read: 1 nM, Table 2, No Inhibitor 4443/4483, no CoA blank 305.
[4] abbreviates: 10 nM, Table 2, No Inhibitor 4443/4483, no CoA blank 305.

The values below come from patent publication US7189748B2, “Compounds and methods for treating insulin resistance and cardiomyopathy” (Forbes Medi-Tech (Research), Inc., priority 2004, dated 2007).

Each structure is given as a SMILES string.

As for `CCCCCCCCc1ccc(CCC(N)(CO)CO)cc1` [FTY720], the “activity against SPT (in words)” value in the assay on SPT [1] is given as “do not inhibit SPT”.
`CCCCCCC(=O)CCCCCC/C=C/C[C@@H](O)[C@H](O)[C@@](N)(CO)C(=O)O` [ISP, myriocin]: the Counts is recorded as 2509 at SPT [2] (setting [3]); 535 on SPT [2] (setting [4]); 959 on SPT [2] (10 nM, Table 3, Control 5816, No Palm CoA 611). The “inhibition of SPT (in words)” value at SPT [2] is given as “potent but non-selective inhibition of SPT”. Besides, the “% Apoptosis” value with Rat pancreatic islets was 14.65%.
Consider `N[C@@H]1CON=C1O` [cycloserine], for which the “partial beta cell protective effect” value in the assay on beta cell apoptosis is around 50 % activity.
For `CCCCCCCOc1ccc(CCC(N)(CO)C(=O)O)cc1` (stereo not shown) [Compound 12], the Counts is reported as 4215 on SPT [2] (setting [3]); 4118 at SPT [2] (setting [4]); 4258 on SPT [2] (100 nM, Table 2, No Inhibitor 4443/4483, no CoA blank 305); 4169 at SPT [2] (1 μM, Table 2, No Inhibitor 4443/4483, no CoA blank 305); 4608 at SPT [2] (10 μM, Table 2, No Inhibitor 4443/4483, no CoA blank 305). Further, at SPT [2], the “inhibition of SPT (in words)” value is “moderate activity”. In addition, in the assay with Rat pancreatic islets, the “% Apoptosis” value was found to be 2.33%. The “protection of cells from the fatty acid treatment (in words)” value in the assay on Rat pancreatic islets (rat islets, fatty acid medium) is on record as “fully protect cells”.
As for `CCCCCCCCc1ccc(CCC(N)(CO)C(=O)O)cc1` (stereo not shown) [Compound 2], the “activity against SPT (in words)” value with SPT [1] is listed as “did not exhibit activity against SPT”.
